Measured values published in patent US11685716B2, “Plant growth inhibiting agent, and plant growth inhibiting method using same” (NATIONAL UNIVERSITY CORPORATION KUMAMOTO UNIVERSITY, priority 2017, dated 2023).

What was measured:
E. coli (DH5a strain) = assay: E. coli growth inhibiting activity (Evaluation 5); assay type: cell-based
Procedure: The compound (6a) or the compound (7) (final concentration 10 μM or 100 μM), 50% ethanol (final concentration 0.05% or 0.5%), or ampicillin (final concentration 50 μg/ml) was added to LB medium in which E. coli (DH5a strain) was added to carry out shaking culture at 37° C. One, 2, 4, and 6 hours after the culture was started, turbidity (OD600) of the culture medium was measured with a spectrophotometer to analyze the affect of the compound (6a) or the compound (7), 50% ethanol, ampicillin on the growth of E. coli cells.
In addition, ampicillin was used as a control of the compound which inhibits the growth.

[1] = tested on: Schizosaccharomyces pombe (wild-type strain 972); assay: Growth inhibiting activity on Schizosaccharomyces pombe (Evaluation 3); assay type: cell-based; conditions: final concentration 100 μM, up to 30 hours
Procedure: The compound (6a) or the compound (7) (final concentration 100 μM) or 50% ethanol (final concentration 0.5%) was added to YE medium in which Schizosaccharomyces pombe (wild-type strain 972) was inoculated to carry out shaking culture at 30° C. Six, 12, 18, 24, and 30 hours after the culture was started, turbidity (OD600) of the culture medium was measured with a spectrophotometer to analyze the affect of the compound (6a) or the compound (7), or 50% ethanol on the growth of the Schizosaccharomyces pombe cells.

thale cress [2] = assay: Activities on plants: growth of thale cress on agar medium (Evaluation 1, 6); assay type: in vivo, thale cress (Col-0, wild-type strain); conditions: for plant growth inhibition effect (activity on plant growth) / twisting of root epidermal cells / abnormality in direction of root growth: thale cress Col-0, agar medium, 7 days; for twisting of root epidermal cells / abnormality in direction of root growth: scanned images
Procedure: The test compound (compound (6a)) and DMSO for a control experiment, were added at this stage and blended. Fifty ml each of the medium was dispensed in sterile No. 2 square petri dishes (Eiken Chemical Co., Ltd.) to prepare agar medium. As a plant material, Col-0, which is a wild-type strain of […] used. Seeds, after their surfaces were sterilized, were planted on the agar medium, and vernalized at 4° C. for 16 hours. Growth of the plant was carried out in a growth chamber (SANYO MLR-351) under the conditions of an illuminance of 3 at 23° C. with constant light. The agar medium was allowed to stand upright in the chamber to grow the plant for 7 days. Lids of the petri dishes used for the test were opened, the test results were recorded with a scanner, and with the scanned images, […]

HeLa cell = assay: Cell proliferation inhibiting activity on human cultured cancer cells (Evaluation 2); assay type: cell-based; conditions: 32 hours
Procedure: Every 8 hours after the culture was started, living cell counts were measured with a cell counting kit (DOJINDO LABORATORIES). In addition, staurosporine was used as a control of the compound which inhibits the cell proliferation.

[3] = tested on: Saccharomyces cerevisiae (BY4741 strain); assay: Growth inhibiting activity on Saccharomyces cerevisiae (Evaluation 4); assay type: cell-based; conditions: final concentration 10 μM or 100 μM, up to 24 hours
Procedure: The compound (6a) or the compound (7) (final concentration 10 μM or 100 μM), or 50% ethanol (final concentration 0.05% or 0.5%) was added to YPD medium in which Saccharomyces cerevisiae (BY4741 strain) was inoculated to carry out shaking culture at 30° C. Four, 8, 16, and 24 hours after the culture was started, turbidity (OD600) of the culture medium was measured with a spectrophotometer to analyze the affect of the compound (6a) or the compound (7), or 50% ethanol on the growth of the […] cells.

thale cress [4] = assay: Plant growth inhibition index, thale cress on agar medium in test tube (Evaluation 8, 9); assay type: in vivo, thale cress (Col-0, wild-type strain); conditions: Concentration 200 μM, 8 days (Evaluation 9, Table 2)
morning glory = assay: Seed treatment, plant growth inhibition index (Evaluation 11); assay type: in vivo; set-up: key: 0: No effect; 1: Growth of the root part was inhibited 50% or less compared with non-treated area.; 2: Growth of the root part was inhibited 50% or more compared with non-treated area.; 3: Growth of the root part was substantially inhibited.; 4: Germination was inhibited; conditions: 200 μM, 6 days (9a, 9b: 7 days)
velvet leaf [5] = assay: as above; assay type: in vivo; set-up: key: 0: No effect; 1: Growth of the root part was inhibited 50% or less compared with non-treated area.; 2: Growth of the root part was inhibited 50% or more compared with non-treated area.; 3: Growth of the root part was substantially inhibited.; 4: Germination was inhibited; conditions: 200 μM, 6 days (9a, 9b: 7 days)
Japanese millet = assay: as above; assay type: in vivo; set-up: key: 0: No effect; 1: Growth of the root part was inhibited 50% or less compared with non-treated area.; 2: Growth of the root part was inhibited 50% or more compared with non-treated area.; 3: Growth of the root part was substantially inhibited.; 4: Germination was inhibited; conditions: 200 μM, 6 days (9a, 9b: 7 days)
Ragweed = assay: as above; assay type: in vivo; set-up: key: 0: No effect; 1: Growth of the root part was inhibited 50% or less compared with non-treated area.; 2: Growth of the root part was inhibited 50% or more compared with non-treated area.; 3: Growth of the root part was substantially inhibited.; 4: Germination was inhibited; conditions: 200 μM, 6 days (9a, 9b: 7 days)
purple amaranth = assay: Spray treatment to stems and leaves, killing weed index (Evaluation 10); assay type: in vivo; conditions: 2000 g active ingredient per hectare, two weeks later
Procedure, shortened: (§1)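 Post-emergence foliar spray on plants 2–9 cm tall at 2000 g active ingredient/ha, in 1000 L/ha or 250 L/ha (small-amount test) spray volume. Above-ground weight versus untreated measured after two weeks; killing rate converted to 0–10 index in 10% steps, 10 meaning 100%.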

velvet leaf [6] = assay: as above; assay type: in vivo; conditions: 2000 g active ingredient per hectare, two weeks later
Procedure, shortened: as §1

southern crabgrass = assay: as above; assay type: in vivo; conditions: 2000 g active ingredient per hectare, two weeks later
Procedure, shortened: as §1

Japanese bristlegrass = assay: as above; assay type: in vivo; conditions: 2000 g active ingredient per hectare, two weeks later
Procedure, shortened: as §1

[7] = thale cress Col-0, concentration of 1000 μM
[8] = sprayed liquid amount 1000 L/ha

SMILES: COn1cccc1C(=O)O [Compound 6a, 1-Methoxy-1H-pyrrole-2-carboxylic acid]
- E. coli growth (OD600) (E. coli (DH5a strain); final concentration 10 μM or 100 μM, up to 6 hours): neither the compound (6a) nor the compound (7) inhibits the E. coli growth
- growth of Schizosaccharomyces pombe (OD600) [1]: neither the compound (6a) nor the compound (7) inhibits the growth
- plant growth inhibition effect (activity on plant growth) (thale cress [2]): plant growth inhibition was significantly observed
- twisting of root epidermal cells / abnormality in direction of root growth (thale cress [2]): epidermal cells of the roots were twisted leftward and abnormality in a direction of root growth was observed
- root epidermal cells, observation by stereomicroscope (thale cress [2]; thale cress Col-0, compound added, FIG. 2): epidermal cells of the roots were observed to have been twisted leftward
- effect on growth rate of HeLa cells (living cell counts) (HeLa cell; final concentration 200 μM): no affect at all
- growth of Saccharomyces cerevisiae (OD600) [3]: neither the compound (6a) nor the compound (7) inhibits the growth

SMILES: CCOn1cccc1C(=O)O [Compound 6b, 1-Ethoxy-1H-pyrrole-2-carboxylic acid]
- twisting of root epidermal cells / abnormality in direction of root growth (thale cress [2]): epidermal cells of the roots were twisted leftward and abnormality in a direction of the root growth was observed

SMILES: O=C(O)c1cccn1O [Compound 6c, 1-Hydroxy-1H-pyrrole-2-carboxylic acid]
- plant growth inhibition effect (activity on plant growth) (thale cress [2]): no activity was observed

SMILES: CCCOn1cccc1C(=O)O [Compound 6d, 1-Propoxy-1H-pyrrole-2-carboxylic acid]
- germination (thale cress [2]; [7]): No germinations were observed

SMILES: CC(C)On1cccc1C(=O)O [Compound 6e, 1-Isopropoxy-1H-pyrrole-2-carboxylic acid]
- germination (thale cress [2]; [7]): No germinations were observed

SMILES: CCCCOn1cccc1C(=O)O [Compound 6f, 1-Butoxy-1H-pyrrole-2-carboxylic acid]
- germination (thale cress [2]; thale cress Col-0, concentration of 500 μM): substantially no germination was observed
- germination (thale cress [2]; [7]): no germination was observed

SMILES: O=C(O)c1cccn1OCc1ccccc1 [Compound 6g, 1-(Benzyloxy)-1H-pyrrole-2-carboxylic acid]
- plant growth inhibition effect (activity on plant growth) (thale cress [2]): a plant growth inhibiting effect was observed even more than when each of the compounds (6d) to (6f)

SMILES: CCCCCCCCCOn1cccc1C(=O)NCc1ccccc1 [Compound 9e]
- Index (thale cress [4]): 2 (Growth of the root part was inhibited 50% or more compared with non-treated area.)
- plant growth inhibition index, Morning glory (morning glory): 0
- plant growth inhibition index, Velvet leaf (velvet leaf [5]): 0
- plant growth inhibition index, Japanese millet (Japanese millet): 3 (Growth of the stem and leave parts was inhibited 30% or more compared with non-treated area, or growth of the only root part was inhibited 60% or more compared with non-treated area.)
- plant growth inhibition index, Ragweed (Ragweed): 0
- killing weed index, Purple amaranth (purple amaranth; sprayed liquid amount 250 L/ha): 0 (“0” when a killing weed rate is 9% to 0%)
- killing weed index, Purple amaranth (purple amaranth; [8]): 0 (“0” when a killing weed rate is 9% to 0%)
- killing weed index, Velvet leaf (velvet leaf [6]; sprayed liquid amount 250 L/ha): 2 (“2” when a killing weed rate is 29% to 20%)
- killing weed index, Velvet leaf (velvet leaf [6]; [8]): 0 (“0” when a killing weed rate is 9% to 0%)
- killing weed index, Southern crabgrass (southern crabgrass; sprayed liquid amount 250 L/ha): 2 (“2” when a killing weed rate is 29% to 20%)
- killing weed index, Southern crabgrass (southern crabgrass; [8]): 2 (“2” when a killing weed rate is 29% to 20%)
- killing weed index, Japanese bristlegrass (Japanese bristlegrass; sprayed liquid amount 250 L/ha): 2 (“2” when a killing weed rate is 29% to 20%)
- killing weed index, Japanese bristlegrass (Japanese bristlegrass; [8]): 2 (“2” when a killing weed rate is 29% to 20%)

SMILES: CCCCCCCCCOn1cccc1C(=O)NCC(F)(F)F [Compound 9f]
- Index (thale cress [4]): 2 (Growth of the root part was inhibited 50% or more compared with non-treated area.)
- plant growth inhibition index, Morning glory (morning glory): 3 (Growth of the stem and leave parts was inhibited 30% or more compared with non-treated area, or growth of the only root part was inhibited 60% or more compared with non-treated area.)
- plant growth inhibition index, Velvet leaf (velvet leaf [5]): 0
- plant growth inhibition index, Japanese millet (Japanese millet): 3 (Growth of the stem and leave parts was inhibited 30% or more compared with non-treated area, or growth of the only root part was inhibited 60% or more compared with non-treated area.)
- plant growth inhibition index, Ragweed (Ragweed): 5 (Growth of the stem and leave parts was inhibited 50% or more compared with non-treated area, or growth of the only root part was inhibited 100% or more compared with non-treated area.)
- killing weed index, Purple amaranth (purple amaranth; sprayed liquid amount 250 L/ha): 0 (“0” when a killing weed rate is 9% to 0%)
- killing weed index, Purple amaranth (purple amaranth; [8]): 0 (“0” when a killing weed rate is 9% to 0%)
- killing weed index, Velvet leaf (velvet leaf [6]; sprayed liquid amount 250 L/ha): 0 (“0” when a killing weed rate is 9% to 0%)
- killing weed index, Velvet leaf (velvet leaf [6]; [8]): 0 (“0” when a killing weed rate is 9% to 0%)
- killing weed index, Southern crabgrass (southern crabgrass; sprayed liquid amount 250 L/ha): 2 (“2” when a killing weed rate is 29% to 20%)
- killing weed index, Southern crabgrass (southern crabgrass; [8]): 3 (“3” when a killing weed rate is 39% to 30%)
- killing weed index, Japanese bristlegrass (Japanese bristlegrass; sprayed liquid amount 250 L/ha): 2 (“2” when a killing weed rate is 29% to 20%)
- killing weed index, Japanese bristlegrass (Japanese bristlegrass; [8]): 1 (“1” when a killing weed rate is 19% to 10%)

SMILES: C#CC(C)(C)NC(=O)c1cc(Cl)cc(Cl)c1 [Propyzamide, reference compound]
- twisting of root epidermal cells / abnormality in direction of root growth (thale cress [2]): abnormality in a direction of the root growth was also observed

SMILES: CC1(C)S[C@@H]2[C@H](NC(=O)[C@H](N)c3ccccc3)C(=O)N2[C@H]1C(=O)O [ampicillin, reference compound]
- E. coli growth (OD600) (E. coli (DH5a strain); final concentration 50 μg/ml, control): growth inhibition was observed

SMILES: CN[C@@H]1C[C@H]2O[C@@](C)([C@@H]1OC)n1c3ccccc3c3c4c(c5c6ccccc6n2c5c31)C(=O)NC4 [staurosporine, reference compound]
- effect on HeLa cells (living cell counts) (HeLa cell; final concentration 1 μM, control): induced the apoptosis
